Results: patent US20230227449A1, “AMIDOPYRIMIDONE DERIVATIVES” (Hoffmann-La Roche Inc., priority 2020, published 2023)

target: Recombinant human Mat2a (Homo sapiens, UniProt P31153); assay: Determination of Mat2A activity (384 well absorbance-based assay, Biomol Green); type: biochemical; details: 12.5 nM Mat2A, 100 μM ATP and Methionine, 2% DMSO, 120 minutes at RT, absorbance at 635 nm
How it was run: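 Recombinant human Mat2A (12.5 nM) was preincubated with compound for 15 min at RT in HEPES pH 7.5 buffer with 2% DMSO. The reaction was started with 100 μM each of ATP and methionine and ran 120 min at RT. Phosphate was detected with Biomol Green by absorbance at 635 nm.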

Sequence of Recombinant human Mat2a (P31153 whole entry): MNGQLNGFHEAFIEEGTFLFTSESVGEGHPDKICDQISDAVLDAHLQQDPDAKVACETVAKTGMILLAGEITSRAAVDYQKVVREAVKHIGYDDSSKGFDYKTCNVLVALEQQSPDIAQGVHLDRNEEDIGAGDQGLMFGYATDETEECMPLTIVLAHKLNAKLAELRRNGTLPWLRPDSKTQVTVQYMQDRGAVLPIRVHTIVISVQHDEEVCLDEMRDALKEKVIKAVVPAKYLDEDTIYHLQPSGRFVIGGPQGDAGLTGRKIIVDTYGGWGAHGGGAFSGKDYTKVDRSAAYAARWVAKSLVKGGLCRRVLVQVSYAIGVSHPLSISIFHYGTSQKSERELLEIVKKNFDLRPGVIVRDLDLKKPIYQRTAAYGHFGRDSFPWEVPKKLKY

| IC50 [nM] | Structure (SMILES) |
| --- | --- |
| < 13 | Cc1c(F)cccc1-n1c(=O)nc(N)c2ccc(C3CC3)cc21 [Example 106, 4-amino-7-cyclopropyl-1-(3-fluoro-2-methylphenyl)quinazolin-2-one] |
| 25 | Nc1nc(=O)n(C2COCCOC2)c2nc(C3CC3)ccc12 [Example 107, 4-amino-7-cyclopropyl-1-(1,4-dioxepan-6-yl)pyrido[2,3-d]pyrimidin-2-one] |
| < 13 | Nc1nc(=O)n(-c2cccc(OC(F)F)n2)c2nc(C3CC3)ccc12 [Example 108, 4-amino-7-cyclopropyl-1-(6-(difluoromethoxy)pyridin-2-yl)pyrido[2,3-d]pyrimidin-2 (1H)-one] |
| 16 | Nc1nc(=O)n(-c2cccnc2Cl)c2cc(OC(F)(F)F)ccc12 [Example 109, 4-amino-1-(2-chloro-3-pyridyl)-7-(trifluoromethoxy)quinazolin-2-one] |
| < 13 | Nc1nc(=O)n(-c2ccccc2OC(F)(F)F)c2nc(C3CC3)ccc12 [Example 110, 4-amino-7-cyclopropyl-1-[2-(trifluoromethoxy)phenyl]pyrido[2,3-d]pyrimidin-2-one] |
| < 13 | Nc1nc(=O)c(-c2ccccc2Cl)c2cc(C3CC3)ccn12 [Example 111, 4-(2-chlorophenyl)-6-cyclopropyl-1-imino-pyrido[1,2-c]pyrimidin-3-one] |
| 39 | Nc1nc(=O)n(C2CCn3cncc32)c2nc(C3CC3)ccc12 (centres unmarked) [Example 112, 4-amino-7-cyclopropyl-1-(6,7-dihydro-5H-pyrrolo[1,2-c]imidazol-7-yl)pyrido[2,3-d]pyrimidin-2-one] |
| 14 | Cc1ccccc1-n1c(=O)nc(N)c2cc(OC(F)F)c(C3CC3)nc21 [Example 113, 4-amino-7-cyclopropyl-6-(difluoromethoxy)-1-(o-tolyl)pyrido[2,3-d]pyrimidin-2-one] |
| 13 | C[C@H]1OCCC[C@@H]1n1c(=O)nc(N)c2ccc(C3CC3)nc21 [Example 118, 4-amino-7-cyclopropyl-1-((2R,3S)-2-methyltetrahydro-2H-pyran-3-yl)pyrido[2,3-d]pyrimidin-2 (1H)-one] |
| < 13 | C[C@@H]1OCCC[C@H]1n1c(=O)nc(N)c2ccc(C3CC3)nc21 [Example 119, 4-amino-7-cyclopropyl-1-((2S,3R)-2-methyltetrahydro-2H-pyran-3-yl)pyrido[2,3-d]pyrimidin-2 (1H)-one] |
| < 13 | Nc1nc(=O)n(-c2cccc3ncsc23)c2nc(C3CC3)ccc12 [Example 120] |
| < 13 | Cc1c(F)cccc1-n1c(=O)nc(N)c2ccc(OC(F)F)cc21 [Example 122, 4-amino-7-(difluoromethoxy)-1-(3-fluoro-2-methylphenyl)quinazolin-2 (1H)-one] |
| 13 | Cc1c(O)cccc1-n1c(=O)nc(N)c2ccc(C3CC3)nc21 [Example 123, 4-amino-7-cyclopropyl-1-(3-hydroxy-2-methylphenyl)pyrido[2,3-d]pyrimidin-2 (1H)-one] |
| < 13 | Nc1nc(=O)n([C@@H]2CCCCOC2)c2nc(C3CC3)ccc12 [Example 124, (R)-4-amino-7-cyclopropyl-1-(oxepan-3-yl)pyrido[2,3-d]pyrimidin-2 (1H)-one] |
| 40 | Nc1nc(=O)n([C@H]2CCCCOC2)c2nc(C3CC3)ccc12 [Example 125, (S)-4-amino-7-cyclopropyl-1-(oxepan-3-yl)pyrido[2,3-d]pyrimidin-2 (1H)-one] |
| < 13 | N#Cc1cccc(-n2c(=O)nc(N)c3ccc(C4CC4)nc32)c1F [Example 126, 3-(4-amino-7-cyclopropyl-2-oxopyrido[2,3-d]pyrimidin-1 (2H)-yl)-2-fluorobenzonitrile] |
| 13 | Cc1cccc(-n2c(=O)nc(N)c3ccc(C4CC4)nc32)c1F [Example 127, 4-amino-7-cyclopropyl-1-(2-fluoro-3-methylphenyl)pyrido[2,3-d]pyrimidin-2 (1H)-one] |
| < 13 | Nc1nc(=O)n(-c2cccc(Cl)c2Cl)c2nc(C3CC3)ccc12 [Example 128, 4-amino-7-cyclopropyl-1-(2,3-dichlorophenyl)pyrido[2,3-d]pyrimidin-2 (1H)-one] |
| < 13 | Cc1c(Cl)cccc1-n1c(=O)nc(N)c2ccc(C3CC3)nc21 [Example 129, 4-amino-1-(3-chloro-2-methylphenyl)-7-cyclopropylpyrido[2,3-d]pyrimidin-2-one] |
| < 13 | Cc1cccc(-n2c(=O)nc(N)c3ccc(C4CC4)nc32)c1Cl [Example 130, 4-amino-1-(2-chloro-3-methylphenyl)-7-cyclopropylpyrido[2,3-d]pyrimidin-2-one] |
| < 13 | Cc1c(CF)cccc1-n1c(=O)nc(N)c2ccc(C3CC3)nc21 [Example 131, 4-amino-7-cyclopropyl-1-(3-(fluoromethyl)-2-methylphenyl)pyrido[2,3-d]pyrimidin-2 (1H)-one] |
| < 13 | Nc1nc(=O)n(-c2ccccc2C(F)(F)F)c2nc(C3CC3)ccc12 [Example 132, 4-amino-7-cyclopropyl-1-(2-(trifluoromethyl)phenyl)pyrido[2,3-d]pyrimidin-2 (1H)-one] |

| IC50 [nM] | Structure (SMILES) |
| --- | --- |
| 26 | Cc1cccc(-n2c(=O)nc(N)c3ccc(OC(F)F)cc32)c1F [Example 133, 4-amino-7-(difluoromethoxy)-1-(2-fluoro-3-methylphenyl)quinazolin-2 (1H)-one] |
| 20 | Cc1cccc(-n2c(=O)nc(N)c3ccc(OC(F)F)cc32)c1 [Example 134, 4-amino-7-(difluoromethoxy)-1-(m-tolyl)quinazolin-2 (1H)-one] |
| < 13 | Nc1nc(=O)n(-c2cccnc2Cl)c2cc(OC(F)F)ccc12 [Example 137, 4-amino-1-(2-chloropyridin-3-yl)-7-(difluoromethoxy)quinazolin-2 (1H)-one] |
| < 13 | Cc1cccc(-n2c(=O)nc(N)c3ccc(C4CC4)nc32)c1C [Example 138, 4-amino-7-cyclopropyl-1-(2,3-dimethylphenyl)pyrido[2,3-d]pyrimidin-2 (1H)-one] |
| < 13 | Nc1nc(=O)n(-c2cccc3[nH]ncc23)c2nc(C3CC3)ccc12 [Example 139, 4-amino-7-cyclopropyl-1-(1H-indazol-4-yl)pyrido[2,3-d]pyrimidin-2 (1H)-one] |
| < 13 | Nc1nc(=O)n([C@@H]2CCCOC23CC3)c2nc(C3CC3)ccc12 [Example 141, 4-amino-7-cyclopropyl-1-[(8R)-4-oxaspiro[2.5]octan-8-yl]pyrido[2,3-d]pyrimidin-2-one] |
| < 13 | Nc1nc(=O)n([C@H]2CCCOC23CC3)c2nc(C3CC3)ccc12 [Example 142, 4-amino-7-cyclopropyl-1-[(8S)-4-oxaspiro[2.5]octan-8-yl]pyrido[2,3-d]pyrimidin-2-one] |
| < 13 | N#Cc1cccc(-n2c(=O)nc(N)c3ccc(C4CC4)nc32)c1Cl [Example 143, 3-(4-amino-7-cyclopropyl-2-oxopyrido[2,3-d]pyrimidin-1 (2H)-yl)-2-chlorobenzonitrile] |
| < 13 | Cc1ccccc1-n1c(=O)nc(N)c2ccc(OC(F)F)cc21 [Example 144, 4-amino-7-(difluoromethoxy)-1-(o-tolyl)quinazolin-2 (1H)-one] |
| 31 | Nc1nc(=O)n(-c2ccc(F)c(F)c2)c2nc(C3CC3)ccc12 [Example 147, 4-amino-7-cyclopropyl-1-(3,4-difluorophenyl)pyrido[2,3-d]pyrimidin-2 (1H)-one] |
| 24 | Nc1nc(=O)c(-c2ccccc2Cl)c2cc(C(F)(F)F)ccn12 [Example 149, 1-amino-4-(2-chlorophenyl)-6-(trifluoromethyl)pyrido[1,2-c]pyrimidin-3-one] |
| 130 | Nc1nc(=O)n(C2CCCOC23CC3)c2cc(OC(F)F)ccc12 (centres unmarked) [Example 150, 4-amino-7-(difluoromethoxy)-1-(4-oxaspiro[2.5]octan-8-yl)quinazolin-2 (1H)-one] |
| < 13 | N#Cc1cccc(-n2c(=O)nc(N)c3ccc(C4CC4)nc32)c1 [Example 151, 3-(4-amino-7-cyclopropyl-2-oxopyrido[2,3-d]pyrimidin-1 (2H)-yl)benzonitrile] |
| 14 | Nc1nc(=O)n(-c2cccc(Cl)c2)c2nc(C3CC3)ccc12 [Example 152, 4-amino-1-(3-chlorophenyl)-7-cyclopropylpyrido[2,3-d]pyrimidin-2 (1H)-one] |
| 17 | CCNc1ccc2c(N)nc(=O)n(-c3ccccc3C)c2c1 [Example 153, 4-amino-7-(ethylamino)-1-(o-tolyl)quinazolin-2-one] |
| 20 | Nc1nc(=O)n(-c2cc(F)ccc2F)c2nc(C3CC3)ccc12 [Example 154, 4-amino-7-cyclopropyl-1-(2,5-difluorophenyl)pyrido[2,3-d]pyrimidin-2 (1H)-one] |
| 16 | Nc1nc(=O)n(-c2ccc(F)cc2Cl)c2nc(C3CC3)ccc12 [Example 155, 4-amino-1-(2-chloro-4-fluorophenyl)-7-cyclopropylpyrido[2,3-d]pyrimidin-2 (1H)-one] |
| 21 | Nc1nc(=O)n(-c2cc(F)ccc2Cl)c2nc(C3CC3)ccc12 [Example 156, 4-amino-1-(2-chloro-5-fluorophenyl)-7-cyclopropylpyrido[2,3-d]pyrimidin-2-one] |
| 15 | Nc1nc(=O)n(-c2cccc3c2CCN3)c2nc(C3CC3)ccc12 [Example 157, 4-amino-7-cyclopropyl-1-(2,3-dihydro-1H-indol-4-yl)pyrido[2,3-d]pyrimidin-2-one] |
| 25 | Cc1c(C#N)cccc1-n1c(=O)nc(N)c2ccc(OC(F)(F)F)cc21 [Example 158, 3-[4-amino-2-oxo-7-(trifluoromethoxy)quinazolin-1-yl]-2-methylbenzonitrile] |
| 19 | Cc1c(F)cccc1-n1c(=O)nc(N)c2ccc(OC(F)(F)F)cc21 [Example 159, 4-amino-1-(3-fluoro-2-methylphenyl)-7-(trifluoromethoxy)quinazolin-2-one] |
| 18 | Nc1nc(=O)n(-c2cccc3c2CCO3)c2cc(OC(F)(F)F)ccc12 [Example 160, 4-amino-1-(2,3-dihydro-1-benzofuran-4-yl)-7-(trifluoromethoxy)quinazolin-2-one] |
